Experimental data from PMC10693528, “A high-throughput metabolomics in vitro platform for the characterization of hepatotoxicity” (Cell Biology and Toxicology, 2023).
Marks after values point to notes of the source that are not given here.

Tested on: HepG2 cells
Assay: Range finder cell viability (CellTiter-Glo, ATP) dose response
Format: cell-based, human
Settings: Homo sapiens, HepG2; estimated from ATP dose response curve, 48 h, rounded
Method: (§1) HepG2 cells (ECACC, UK, maximum passage number 9) were maintained and grown on Dulbecco’s MEM media supplemented with 1% v/v of penicillin/streptomycin, L-glutamine (200 mM, 1% v/v), non-essential amino acids (100x, 1% v/v), and 10% FBS (PAN-Biotech, Aidenbach, Germany) in 75 cm^2 culture flasks (TPP, Switzerland). For cell passaging (~ 80% confluency) media was removed and cells were washed twice with pre-warmed calcium and magnesium free Dulbecco’s PBS (PAN-Biotech, Aidenbach, Germany). Trypsin was used for cell detachment. Then, 20 mL culture medium was added, and single-cell suspensions were obtained by passing the suspension through a Combitip (Eppendorf, Germany). A fraction of the cell suspension was then transferred to a new culture vessel. For experiments, 15,000 cells per well (passage 5-9) were seeded in 96-well flat-bottom plates (TPP, Switzerland) and incubated for 24 h for cell attachment (37 °C and 5% CO^2). Afterwards, culture media were exchanged, test substances applied, and plates incubated for 48 h (37 °C and 5% CO^2).
In order to define appropriate dose levels, range finder experiments were performed prior to metabolome experiments. Substances were administered to HepG2 cells in increasing concentrations and incubated for 48 h (6 replicates per concentration). Viability and cytotoxicity tests were performed as described previously. Luminescence values resulting from CellTiter-Glo® assays were used to build dose response curves. Curve fitting and effective concentrations (ECs) values were calculated in R using three-parameter Weibull model (W1.3). To obtain a full metabolome-based dose-response effect, five concentrations (EC1, EC5, EC15, EC50, EC85) were selected for metabolome experiments (Table 2). […] Calculated ECs values were rounded to the nearest integer number for dose selection.
In the case of CCC(CC)Nc1c([N+](=O)[O-])cc(C)c(C)c1[N+](=O)[O-] [Pendimethalin], the EC50 is reported as 94 µM. Molecule Cc1cccc(Nc2cc(Cl)nc(SCC(=O)O)n2)c1C [Wy-14643] has an EC50 of 500 µM. Molecule O=c1cc(-c2ccccc2)oc2ccc3ccccc3c12 [β-naphthoflavone] has an EC50 of 100 µM. For CC(=O)N1CCN(c2ccc(OCC3COC(Cn4ccnc4)(c4ccc(Cl)cc4Cl)O3)cc2)CC1 (stereo not drawn) [Ketoconazole], the EC50 was 10 µM. In the case of O=C(O)c1cc(Oc2ccc(C(F)(F)F)cc2Cl)ccc1[N+](=O)[O-] [Acifluorfen], the EC50 is reported as 500 µM.

Same assay, conditions: estimated from ATP dose response curve, 48 h, rounded
In the case of CCC(CC)Nc1c([N+](=O)[O-])cc(C)c(C)c1[N+](=O)[O-] [Pendimethalin], the EC1 is reported as 24 µM, the EC5 is reported as 39 µM and the EC15 is reported as 56 µM. For the same molecule, the EC85 was 157 µM. Cc1cccc(Nc2cc(Cl)nc(SCC(=O)O)n2)c1C [Wy-14643] showed an EC1 of 25 µM, an EC5 of 50 µM and an EC15 of 150 µM. For the same molecule, the EC85 was 1000 µM. Molecule O=c1cc(-c2ccccc2)oc2ccc3ccccc3c12 [β-naphthoflavone] has an EC1 of 0.1 µM, an EC5 of 1 µM and an EC15 of 10 µM. It also gave an EC85 of 700 µM. In the case of CC(=O)N1CCN(c2ccc(OCC3COC(Cn4ccnc4)(c4ccc(Cl)cc4Cl)O3)cc2)CC1 (stereo not drawn) [Ketoconazole], the EC1 is reported as 5^b μM, the EC5 is reported as 0.2 µM and the EC15 is reported as 1 µM. It also gave an EC85 of 50 µM. In the case of O=C(O)c1cc(Oc2ccc(C(F)(F)F)cc2Cl)ccc1[N+](=O)[O-] [Acifluorfen], the EC1 is reported as 50 µM, the EC5 is reported as 100 µM and the EC15 is reported as 200 µM. It also gave an EC85 of 800 µM.

Tested on: HepG2 cells
Assay: Cytotoxicity (CellTox Green) in parallel with metabolomics experiments
Settings: intermediate concentration (C3; C2 for aroclor), 48 h
Method: Commercially available cytotoxicity (CellTox™ Green) and ATP content based (CellTiter-Glo®) assays (Promega GmbH, Walldorf, Germany) were multiplexed in a single 96-well plate following the manufacturer’s instructions. For positive controls, lysis solution 25X was added in wells containing vehicle control treated cells (0.5% DMSO). Then, 10X CellTox Green reagent was added in all wells, plates were shaken for 1 min, and incubated in the dark for 15 min at room temperature. […] Afterwards, wells were washed with PBS, 100 μL of Dulbecco’s MEM media were added to each well and subsequently 100 μL of 1X CellTiter-Glo were added. Plates were shaken for 2 min and incubated in the dark for 8 min at room temperature. Luminescence was measured in the GloMax®-Multi Detection System (Promega) and was normalized to the values of the vehicle control. Cytotoxicity and ATP cell viability analysis were carried out for range finder pre-tests and in parallel with metabolomics experiments in plates handled and treated exactly as the ones used for metabolite profiling.
In the case of CCC(CC)Nc1c([N+](=O)[O-])cc(C)c(C)c1[N+](=O)[O-] [Pendimethalin], the “cytotoxicity (CellTox Green)” value is reported as “low cytotoxicity”. With Cc1cccc(Nc2cc(Cl)nc(SCC(=O)O)n2)c1C [Wy-14643] the “cytotoxicity (CellTox Green)” value was “low cytotoxicity”. With O=c1cc(-c2ccccc2)oc2ccc3ccccc3c12 [β-naphthoflavone] the “cytotoxicity (CellTox Green)” value was “low cytotoxicity”. For O=C(O)c1cc(Oc2ccc(C(F)(F)F)cc2Cl)ccc1[N+](=O)[O-] [Acifluorfen], the “cytotoxicity (CellTox Green)” value was “low cytotoxicity”.

Tested on: not listed separately
Assay: Cell viability (ATP, CellTiter-Glo) in parallel with metabolomics experiments
Settings: human, HepG2 cells, Percentage of viability (ATP) compared to the vehicle control, C1, C1, 48 h, n = 6
Method: as §1
For each substance, one 96-well plate was set up with 6 replicates per concentration, 12 replicates for vehicle controls (yielding a final concentration of 0.5% DMSO in the well), 6 replicates for positive controls (Bezafibrate 1000 μM), and 6 replicates for blank controls (media without cells). To minimize potential evaporation, the outer rows and columns of the plate were omitted and filled with PBS instead. Reference samples prepared from lyophilized HepG2 cells were measured in parallel throughout the entire analytical process (technical replicates). […] Lyophilized HepG2 cells reference samples were used to account for variability between plates and in concentration series for linearity checks. After 48 h, the assays were stopped by washing the wells once with 100 μL 0.9% NaCl followed by snap freezing the plates on liquid nitrogen for 5 s. Plates were placed immediately on dry ice and 50 μL ice-cooled isopropanol 80% (v/v) were added to quench metabolism and precipitate proteins. Plates were stored at − 80 °C until LC/ MS analysis.
For Cc1cccc(Nc2cc(Cl)nc(SCC(=O)O)n2)c1C [Wy-14643], the viability at 48 h was 101 ± 3.8%. With O=c1cc(-c2ccccc2)oc2ccc3ccccc3c12 [β-naphthoflavone] the viability at 48 h was 103 ± 4.3%. Molecule CC(=O)N1CCN(c2ccc(OCC3COC(Cn4ccnc4)(c4ccc(Cl)cc4Cl)O3)cc2)CC1 (stereo not drawn) [Ketoconazole] has a viability at 48 h of 102 ± 3.1%. O=C(O)c1cc(Oc2ccc(C(F)(F)F)cc2Cl)ccc1[N+](=O)[O-] [Acifluorfen] showed a viability at 48 h of 105 ± 4.2%.

Same assay, conditions: human, HepG2 cells, Percentage of viability (ATP) compared to the vehicle control, C2, C2, 48 h, n = 6
In the case of Cc1cccc(Nc2cc(Cl)nc(SCC(=O)O)n2)c1C [Wy-14643], the viability at 48 h is reported as 97.1 ± 3.1%. O=c1cc(-c2ccccc2)oc2ccc3ccccc3c12 [β-naphthoflavone] showed a viability at 48 h of 114 ± 3.7%. For CC(=O)N1CCN(c2ccc(OCC3COC(Cn4ccnc4)(c4ccc(Cl)cc4Cl)O3)cc2)CC1 (stereo not drawn) [Ketoconazole], the viability at 48 h was 102 ± 0.9%. O=C(O)c1cc(Oc2ccc(C(F)(F)F)cc2Cl)ccc1[N+](=O)[O-] [Acifluorfen] gave a viability at 48 h of 105 ± 4.8%.

Same assay, conditions: human, HepG2 cells, Percentage of viability (ATP) compared to the vehicle control, C3, C3, 48 h, n = 6
Cc1cccc(Nc2cc(Cl)nc(SCC(=O)O)n2)c1C [Wy-14643] gave a viability at 48 h of 94.6 ± 1.8%. With O=c1cc(-c2ccccc2)oc2ccc3ccccc3c12 [β-naphthoflavone] the viability at 48 h was 104 ± 1.6%. In the case of CC(=O)N1CCN(c2ccc(OCC3COC(Cn4ccnc4)(c4ccc(Cl)cc4Cl)O3)cc2)CC1 (stereo not drawn) [Ketoconazole], the viability at 48 h is reported as 91.2 ± 1.5%. Molecule O=C(O)c1cc(Oc2ccc(C(F)(F)F)cc2Cl)ccc1[N+](=O)[O-] [Acifluorfen] has a viability at 48 h of 99.9 ± 1.3%.

Same assay, conditions: human, HepG2 cells, Percentage of viability (ATP) compared to the vehicle control, C4, C4, 48 h, n = 6
In the case of Cc1cccc(Nc2cc(Cl)nc(SCC(=O)O)n2)c1C [Wy-14643], the viability at 48 h is reported as 46.4 ± 2%. In the case of O=c1cc(-c2ccccc2)oc2ccc3ccccc3c12 [β-naphthoflavone], the viability at 48 h is reported as 34.5 ± 3.4%. For CC(=O)N1CCN(c2ccc(OCC3COC(Cn4ccnc4)(c4ccc(Cl)cc4Cl)O3)cc2)CC1 (stereo not drawn) [Ketoconazole], the viability at 48 h was 64.7 ± 1.5%. O=C(O)c1cc(Oc2ccc(C(F)(F)F)cc2Cl)ccc1[N+](=O)[O-] [Acifluorfen] gave a viability at 48 h of 58.4 ± 1.5%.

Same assay, conditions: human, HepG2 cells, Percentage of viability (ATP) compared to the vehicle control, C5, C5, 48 h, n = 6
In the case of Cc1cccc(Nc2cc(Cl)nc(SCC(=O)O)n2)c1C [Wy-14643], the viability at 48 h is reported as 23.2 ± 1.1%. With O=c1cc(-c2ccccc2)oc2ccc3ccccc3c12 [β-naphthoflavone] the viability at 48 h was 15 ± 2.1%. CC(=O)N1CCN(c2ccc(OCC3COC(Cn4ccnc4)(c4ccc(Cl)cc4Cl)O3)cc2)CC1 (stereo not drawn) [Ketoconazole] gave a viability at 48 h of 28.2 ± 1.9%. In the case of O=C(O)c1cc(Oc2ccc(C(F)(F)F)cc2Cl)ccc1[N+](=O)[O-] [Acifluorfen], the viability at 48 h is reported as 27.8 ± 1.3%.

Same assay, conditions: human, Percentage of viability (ATP) compared to the vehicle control, C1, C1, 48 h, n = 6
CCC(CC)Nc1c([N+](=O)[O-])cc(C)c(C)c1[N+](=O)[O-] [Pendimethalin] gave a viability at 48 h of 98.3 ± 3.9%.

Same assay, conditions: human, Percentage of viability (ATP) compared to the vehicle control, C2, C2, 48 h, n = 6
CCC(CC)Nc1c([N+](=O)[O-])cc(C)c(C)c1[N+](=O)[O-] [Pendimethalin] showed a viability at 48 h of 100 ± 2.9%.

Same assay, conditions: human, Percentage of viability (ATP) compared to the vehicle control, C3, C3, 48 h, n = 6
CCC(CC)Nc1c([N+](=O)[O-])cc(C)c(C)c1[N+](=O)[O-] [Pendimethalin] gave a viability at 48 h of 82.4 ± 4.9%.

Same assay, conditions: human, Percentage of viability (ATP) compared to the vehicle control, C4, C4, 48 h, n = 6
In the case of CCC(CC)Nc1c([N+](=O)[O-])cc(C)c(C)c1[N+](=O)[O-] [Pendimethalin], the viability at 48 h is reported as 36.1 ± 3.2%.

Same assay, conditions: human, Percentage of viability (ATP) compared to the vehicle control, C5, C5, 48 h, n = 6
In the case of CCC(CC)Nc1c([N+](=O)[O-])cc(C)c(C)c1[N+](=O)[O-] [Pendimethalin], the viability at 48 h is reported as 18.5 ± 3.2%.
